Source: patent publication US20250152585A1, “PHARMACEUTICAL COMPOUND” (Duke Street Bio Limited, priority 2022, published 2025)
pIC50, pKd: −log10 of the molar value. Read-outs that look alike come from different tables or passages of the source.

Key:
[1] = biological target: T1, N-terminally FLAG-tagged PARP2 (amino acids 1-583) (Homo sapiens, UniProt Q9UGN5); test: PARP2 probe displacement HTRF assay; assay type: binding; conditions: binned Kd
T1 construct: N-terminally FLAG-tagged PARP2 (amino acids 1-583)
Experimental: Data analysis was performed identical as for PARP1.

[2] = biological target: T2, full length N-terminally FLAG-tagged PARP1 (Homo sapiens, UniProt P09874); test: PARP1 probe displacement HTRF assay; conditions: for pKd: binned Kd; for Selectivity: PARP1 over PARP2, ratio Kd (PARP2)/Kd (PARP1)
[3] = biological target: T2, full length N-terminally FLAG-tagged PARP1; test: PARP1 biochemical DELFIA assay (auto-PARylation); set-up: recombinant full length human N-terminally FLAG-tagged PARP1
[4] = PARP1 HTRF, probe displacement HTRF
[5] = binned IC50, biochemical auto-PARylation assay
[6] = read-out: PARP1 HTRF, PARP1 probe displacement HTRF
[7] = binned IC50, PARP1 biochemical DELFIA assay
[8] = read-out: PARP1 HTRF, probe displacement HTRF
[9] = PARP1 HTRF, PARP1 probe displacement HTRF

T1 sequence (Q9UGN5 whole entry, the tested form may be a part): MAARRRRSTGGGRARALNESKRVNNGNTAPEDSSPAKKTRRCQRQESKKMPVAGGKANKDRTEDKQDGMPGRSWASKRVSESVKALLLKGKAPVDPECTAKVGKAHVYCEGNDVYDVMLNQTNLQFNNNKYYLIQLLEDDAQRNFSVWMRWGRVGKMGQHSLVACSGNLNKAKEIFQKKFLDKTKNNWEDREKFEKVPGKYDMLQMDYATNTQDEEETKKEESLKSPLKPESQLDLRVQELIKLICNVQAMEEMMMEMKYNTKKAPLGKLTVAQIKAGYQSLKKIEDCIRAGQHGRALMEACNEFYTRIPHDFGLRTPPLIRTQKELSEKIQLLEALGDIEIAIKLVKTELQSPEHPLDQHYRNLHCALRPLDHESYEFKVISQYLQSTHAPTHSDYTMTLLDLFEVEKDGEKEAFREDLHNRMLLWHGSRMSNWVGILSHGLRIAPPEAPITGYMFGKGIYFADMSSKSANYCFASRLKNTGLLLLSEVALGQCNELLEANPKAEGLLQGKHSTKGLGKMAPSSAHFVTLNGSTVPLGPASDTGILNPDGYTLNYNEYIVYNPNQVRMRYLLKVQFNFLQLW
T2 sequence (P09874 whole entry): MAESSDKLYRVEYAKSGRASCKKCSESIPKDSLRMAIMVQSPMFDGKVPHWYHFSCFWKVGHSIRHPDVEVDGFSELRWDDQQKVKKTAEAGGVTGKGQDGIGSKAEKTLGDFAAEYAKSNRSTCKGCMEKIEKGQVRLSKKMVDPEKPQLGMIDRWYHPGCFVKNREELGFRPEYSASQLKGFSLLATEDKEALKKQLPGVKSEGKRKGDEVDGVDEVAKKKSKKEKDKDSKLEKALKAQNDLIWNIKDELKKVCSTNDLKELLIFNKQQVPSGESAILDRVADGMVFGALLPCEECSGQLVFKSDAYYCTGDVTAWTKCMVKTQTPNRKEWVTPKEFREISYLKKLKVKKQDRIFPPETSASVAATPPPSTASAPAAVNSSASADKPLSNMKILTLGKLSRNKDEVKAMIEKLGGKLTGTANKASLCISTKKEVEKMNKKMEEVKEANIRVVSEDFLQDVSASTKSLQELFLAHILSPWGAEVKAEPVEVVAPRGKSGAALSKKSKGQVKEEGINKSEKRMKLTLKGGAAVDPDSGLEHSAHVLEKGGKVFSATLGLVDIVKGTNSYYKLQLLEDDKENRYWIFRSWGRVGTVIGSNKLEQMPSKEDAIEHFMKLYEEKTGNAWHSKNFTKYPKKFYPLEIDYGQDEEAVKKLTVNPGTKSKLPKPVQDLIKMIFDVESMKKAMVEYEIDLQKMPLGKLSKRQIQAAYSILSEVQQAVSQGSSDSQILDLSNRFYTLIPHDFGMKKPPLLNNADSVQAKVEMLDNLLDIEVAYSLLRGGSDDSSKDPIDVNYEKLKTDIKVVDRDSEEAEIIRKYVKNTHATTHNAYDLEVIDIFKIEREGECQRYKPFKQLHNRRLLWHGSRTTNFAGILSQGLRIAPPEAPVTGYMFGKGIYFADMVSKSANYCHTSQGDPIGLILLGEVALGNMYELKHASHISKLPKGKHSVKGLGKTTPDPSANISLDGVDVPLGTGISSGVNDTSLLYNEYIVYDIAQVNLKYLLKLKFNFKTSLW

pKd ([1]; probe displacement HTRF) | pKd [2, 4] | pIC50 [3, 5] | pKd ([1]; PARP2 probe displacement HTRF) | pKd [2, 6] | pIC50 [3, 7] | pKd [2, 8] | pKd [2, 9] | Structure (SMILES) | Selectivity ([2]; probe displacement HTRF)
< 5.00 | > 8.00 | > 8.00 |  |  |  |  |  | CNC(=O)c1ccc(N2CCC(N3CCC(c4cc5c(c(=O)[nH]4)CCC(=O)N5)C3)CC2)cn1 (single isomer, unassigned) [Compound 309a, 5-(4-(3-(2,5-dioxo-1,2,3,4,5,6-hexahydro-1,6-naphthyridin-7-yl)pyrrolidin-1-yl)piperidin-1-yl)-N-methylpicolinamide] | +++ (+++ indicate a value of at least 100)
6.00 to 7.00 | > 8.00 | > 8.00 |  |  |  |  |  | CNC(=O)c1ncc(N2CCC(N3CC4(c5nc6ccc(F)cc6c(=O)[nH]5)CC3C4)CC2)cc1F [Compound 379] | +++ (+++ indicate a value of at least 100)
 |  |  | < 5.00 | 5.00 to 6.00 | 5.00 to 6.00 |  |  | CNC(=O)c1ccc(N2CCC(N3CCCC(F)(c4nc5ccccc5c(=O)[nH]4)C3)CC2)cn1 (single isomer, unassigned) [Compound 71a] | − (− indicates a value of less than 10)
5.00 to 6.00 |  | 6.00 to 7.00 |  |  |  | 6.00 to 7.00 |  | CS(=O)(=O)Nc1ccc(N2CCC(N3CCC(c4nc5ccccc5c(=O)[nH]4)C3)CC2)cn1 (single isomer, unassigned) [Compound 291b] | − (− indicates a value of less than 10)
 |  |  | 7.00 to 8.00 |  | > 8.00 |  | > 8.00 | CNC(=O)c1ccc(N2CCC(N3CCC(c4cc5ccc(F)cc5c(=O)[nH]4)C3)CC2)cn1 (racemic) [Compound 154rac, 5-(4-(3-(7-fluoro-1-oxo-1,2-dihydroisoquinolin-3-yl)pyrrolidin-1-yl)piperidin-1-yl)-N-methylpicolinamide] | + (+ indicates a value of 10 to less than 50)
 |  |  | 5.00 to 6.00 | 6.00 to 7.00 | 6.00 to 7.00 |  |  | CNC(=O)c1ccc(F)c(N2CCC(N3CCC(c4nc5ccccc5c(=O)[nH]4)C3)CC2)n1 (racemic) [Compound 105rac] | − (− indicates a value of less than 10)
6.00 to 7.00 |  | > 8.00 |  |  |  | 7.00 to 8.00 |  | CC(=O)Nc1ccc(N2CCC(N3CCC(c4cc5ccccc5c(=O)[nH]4)C3)CC2)cc1 (single isomer, unassigned) [Compound 289b] | + (+ indicates a value of 10 to less than 50)
5.00 to 6.00 |  | 7.00 to 8.00 |  |  |  | 6.00 to 7.00 |  | CS(=O)(=O)Nc1ccc(N2CCC(N3CCC(c4nc5ccccc5c(=O)[nH]4)C3)CC2)cn1 (single isomer, unassigned) [Compound 291a] | + (+ indicates a value of 10 to less than 50)
< 5.00 | > 8.00 | > 8.00 |  |  |  |  |  | CNC(=O)c1ccc(N2CCC(N3CC4(c5nc6ncccc6c(=O)[nH]5)CC3C4)CC2)c(F)n1 [Compound 303] | +++ (+++ indicate a value of at least 100)
< 5.00 |  | 5.00 to 6.00 |  |  |  | 5.00 to 6.00 |  | CNC(=O)c1ccc(N2CCC(N3CCC(c4cnc(CC(F)(F)F)c(=O)[nH]4)C3)CC2)cn1 (single isomer, unassigned) [Compound 287b] | − (− indicates a value of less than 10)
7.00 to 8.00 |  | > 8.00 |  |  |  | > 8.00 |  | CNC(=O)c1ccc(N2CCC(N3CCC(c4[nH]c(=O)c5ccccc5c4C)C3)CC2)cn1 (racemic) [Compound 237rac] | ++ (++ indicates a value of 50 to less than 100)
 |  |  | < 5.00 | 7.00 to 8.00 | 7.00 to 8.00 |  |  | CNC(=O)c1ccc(N2CCC(N3CCCC(c4nc5c(c(=O)[nH]4)CCCC5)C3)CC2)cn1 (single isomer, unassigned) [Compound 146b] | +++ (+++ indicate a value of at least 100)
6.00 to 7.00 |  | > 8.00 |  |  |  | > 8.00 |  | CCc1ccc(C2CCN(C3CCN(c4ccc(C(=O)NCC(F)F)nc4F)CC3)C2)[nH]c1=O (single isomer, unassigned) [Compound 398b] | +++ (+++ indicate a value of at least 100)
5.00 to 6.00 | > 8.00 | > 8.00 |  |  |  |  |  | CNC(=O)c1ccc(N2CCC(N3CC(c4cc5cccc(F)c5c(=O)[nH]4)C(F)(F)C3)CC2)cn1 (racemic) [Compound 393rac, 5-(4-(3,3-difluoro-4-(8-fluoro-1-oxo-1,2-dihydroisoquinolin-3-yl)pyrrolidin-1-yl)piperidin-1-yl)-N-methylpicolinamide] | +++ (+++ indicate a value of at least 100)
 |  |  | 6.00 to 7.00 |  | 7.00 to 8.00 |  | 7.00 to 8.00 | CNC(=O)c1ccc(N2CCC(N3CCC(c4nc5[nH]nc(C(F)(F)F)c5c(=O)[nH]4)C3)CC2)cn1 (single isomer, unassigned) [Compound 162a, N-methyl-5-(4-(3-(4-oxo-3-(trifluoromethyl)-4,5-dihydro-1H-pyrazolo[3,4-d]pyrimidin-6-yl)pyrrolidin-1-yl)piperidin-1-yl)picolinamide] | − (− indicates a value of less than 10)
 |  |  | < 5.00 | 6.00 to 7.00 | 6.00 to 7.00 |  |  | CNC(=O)c1ccc(N2CCC(N3CCC(c4ccc(CC(F)(F)F)c(=O)[nH]4)C3)CC2)cn1 (single isomer, unassigned) [Compound 188a] | + (+ indicates a value of 10 to less than 50)
< 5.00 |  | 6.00 to 7.00 |  |  |  | 6.00 to 7.00 |  | CNC(=O)c1ccc(N2CCC(N3CCC(c4cc5cccc(OC)c5c(=O)[nH]4)C3)CC2)cn1 (single isomer, unassigned) [Compound 249b] | + (+ indicates a value of 10 to less than 50)
 |  |  | 5.00 to 6.00 | > 8.00 | > 8.00 |  |  | CCc1ccc(C2CCN(C3CCN(c4ccc(C(=O)NC)nc4C(F)F)CC3)C2)[nH]c1=O (single isomer, unassigned) [Compound 164a] | +++ (+++ indicate a value of at least 100)
< 5.00 | > 8.00 | 7.00 to 8.00 |  |  |  |  |  | CCc1cnc(C23CC(C2)N(C2CCN(c4ccc(C(=O)NC)nc4C(F)(F)F)CC2)C3)[nH]c1=O [Compound 310] | +++ (+++ indicate a value of at least 100)
6.00 to 7.00 |  | > 8.00 |  |  |  | > 8.00 |  | CNC(=O)c1ccc(N2CCC(N3CCC(c4cc5c(c(=O)[nH]4)COCC5)C3)CC2)cn1 (racemic) [Compound 405rac] | +++ (+++ indicate a value of at least 100)
5.00 to 6.00 | > 8.00 | > 8.00 |  |  |  |  |  | CNC(=O)c1ccc(N2CCC(N3CC4(c5nc6ncc(F)cc6c(=O)[nH]5)CC3C4)CC2)c(F)n1 [Compound 369] | +++ (+++ indicate a value of at least 100)
6.00 to 7.00 |  | > 8.00 |  |  |  | > 8.00 |  | N#Cc1nc(C(=O)NC2CC2)ccc1N1CCC(N2CCC(c3cc4ccc(F)cc4c(=O)[nH]3)C2)CC1 (single isomer, unassigned) [Compound 397a] | +++ (+++ indicate a value of at least 100)
 |  |  | 5.00 to 6.00 | > 8.00 | > 8.00 |  |  | CCc1ccc(C2CCN(C3CCN(c4ccc(C(=O)NC)nc4C)CC3)C2)[nH]c1=O (single isomer, unassigned) [Compound 133a] | +++ (+++ indicate a value of at least 100)
< 5.00 |  | 7.00 to 8.00 |  |  |  |  |  | CNC(=O)c1ccc(N2CCC(N3CCC(c4cc5c(c(=O)[nH]4)CCC(=O)N5)C3)CC2)cn1 (single isomer, unassigned) [Compound 309b, 5-(4-(3-(2,5-dioxo-1,2,3,4,5,6-hexahydro-1,6-naphthyridin-7-yl)pyrrolidin-1-yl)piperidin-1-yl)-N-methylpicolinamide] | ++ (++ indicates a value of 50 to less than 100)
5.00 to 6.00 |  | > 8.00 |  |  |  | > 8.00 |  | CNC(=O)c1ncc(N2CCC(N3CCC(c4cc5ccc(F)cc5c(=O)[nH]4)C3)CC2)c(C)n1 (single isomer, unassigned) [Compound 265a] | +++ (+++ indicate a value of at least 100)
< 5.00 |  | 6.00 to 7.00 |  |  |  | 6.00 to 7.00 |  | CNC(=O)c1ccc(N2CCC(N3CCCC(O)(c4nc5ccccc5c(=O)[nH]4)C3)CC2)cn1 (single isomer, unassigned) [Compound 327a] | + (+ indicates a value of 10 to less than 50)
 |  |  | 6.00 to 7.00 | 7.00 to 8.00 | 7.00 to 8.00 |  |  | CNC(=O)c1ccc(N2CCC(N3CCC(c4nc5c(c(=O)[nH]4)CCCN5)C3)CC2)cn1 (single isomer, unassigned) [Compound 214a] | ++ (++ indicates a value of 50 to less than 100)
5.00 to 6.00 |  | 5.00 to 6.00 |  |  |  | 5.00 to 6.00 |  | CNC(=O)c1ccc(N2CCC(N3CCC(c4cc5ccccc5c(=O)[nH]4)C3)CC2)s1 (racemic) [Compound 319rac] | − (− indicates a value of less than 10)
 |  |  | 5.00 to 6.00 | 6.00 to 7.00 | 6.00 to 7.00 |  |  | CNC(=O)c1ccc(N2CCC(N3CCCC(c4nc5c(c(=O)[nH]4)CCCC5)C3)CC2)cn1 (single isomer, unassigned) [Compound 146a] | − (− indicates a value of less than 10)
6.00 to 7.00 |  | > 8.00 |  |  |  | > 8.00 |  | CNC(=O)c1ccc(N2CCC(N3CCC(c4cc5ncc(F)cc5c(=O)[nH]4)C3)CC2)cn1 (single isomer, unassigned) [Compound 315b] | +++ (+++ indicate a value of at least 100)
